Assay results published in US8304216B2, “Method for production of erythro-or threo-2-amino-3-hydroxypropionic acid ester, novel carbonyl reductase, gene for the reductase, vector, transformant, and method for production of optically active alcohol using those” (Kaneka Corporation, priority 2006, dated 2012).

test system: purified polypeptide (carbonyl reductase) from the Brevundimonas diminuta NBRC 12697 strain; assay: Substrate specificity of purified polypeptide: reducing activity against carbonyl compounds (NADH decrease at 340 nm); assay type: biochemical; conditions: substrate 2 mM, NADH 0.167 mM, 100 mM phosphate buffer pH 6.5, 0.4% (v/v) DMSO, 30° C., 3 minutes; activity against ethyl N-Boc-2-amino-3-cyclohexyl-3-oxopropionate taken as 100%

relative activity [%]	SMILES
100	CCOC(=O)C(NC(=O)OC(C)(C)C)C(=O)C1CCCCC1 (centres unmarked) [Ethyl N-Boc-2-amino-3-cyclohexyl-3-oxopropionate]
156	O=C1CCSC1 [tetrahydrothiophen-3-one]
199	CCOC(=O)C1CCCC1=O (centres unmarked) [Ethyl 2-oxocyclopentanecarboxylate]
6046	CCCC(=O)C(=O)OCC [Ethyl 2-oxopentanoate]
4737	CC12CCC(C(=O)C1=O)C2(C)C (centres unmarked) [camphorquinone]
445	O=Cc1ccc(Cl)cc1 [p-chlorobenzaldehyde]
1139	CCOC(=O)C(Cl)C(=O)c1ccccc1 (centres unmarked) [Ethyl 2-chloro-3-oxo-3-phenylpropionate]
4830	CC(=O)C(C)=O [diacetyl]
1219	O=Cc1ccccc1Cl [o-chlorobenzaldehyde]
164	CC(=O)c1ccco1 [2-acetylfuran]
248	CC(=O)C=O [methylglyoxal]
5625	COC(=O)C(C)=O [Methyl pyruvate]
273	CC(=O)CC(C)=O [acetylacetone]
12198	CCOC(=O)C(=O)c1ccccc1 [Ethyl benzoylformate]
425	CCOC(=O)C(C)C(C)=O (centres unmarked) [Ethyl 2-methylacetoacetate]
2138	O=Cc1cccc(Cl)c1 [m-chlorobenzaldehyde]
621	CC(C=O)c1ccccc1 (centres unmarked) [2-phenylpropionaldehyde]

SMILES	relative activity [%]
CC(=O)c1ccc(Cl)cc1 [p-chloroacetophenone]	534
CCOC(=O)C(Cl)C(C)=O (centres unmarked) [Ethyl 2-chloroacetoacetate]	7264
CC(=O)c1ccncc1 [4-acetylpyrridine]	1149
O=C(c1ccccc1)C(F)(F)F [2,2,2-trifluoroacetophenone]	42277
CC(=O)c1ccccc1Cl [o-chloroacetophenone]	350
O=C(CCl)c1ccccc1 [2-chloroacetophenone]	12789
CC(=O)c1cccc(Cl)c1 [m-chloroacetophenone]	4368
CCCCC(C)=O [2-hexanone]	1540
COC(=O)CC(C)=O [Methyl acetoacetate]	1095
O=C(CCl)c1cccc(Cl)c1 [2,3′-dichloroacetophenone]	12719
CCOC(=O)CC(=O)CCl [Ethyl 4-chloroacetoacetate]	533470
CCCCCC=O [n-hexylaldehyde]	2160
